Reference: patent US10597388B2, “Pyridazinone herbicides” (FMC CORPORATION, priority 2014, dated 2020)

Legend:
Type in all cases: in vivo
[1] = system: oat, wild (wild oat, Avena fatua); test: Test C greenhouse herbicide test, postemergence
In short: (§1)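 Plants grown in potting mix of peat moss, vermiculite, wetting agent and starter nutrients were sprayed postemergence at 2 to 18 cm height (1- to 4-leaf stage). After 13 to 15 d in the greenhouse, injury was visually rated against untreated controls on a 0–100 scale (0 no effect, 100 complete control).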

[2] = system: chickweed (common chickweed, Stellaria media); test: Test C greenhouse herbicide test, postemergence
In short: as §1

kochia (Kochia scoparia) [3] = test: Test C greenhouse herbicide test, postemergence
In short: as §1

[4] = system: wheat (Triticum aestivum); test: Test A greenhouse herbicide test, pre- and postemergence; settings: Postemergence; for Wheat plant response rating: 0 to 100 scale, 0 is no effect, 100 is complete control
In short: (§2)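 Visual injury ratings, 0 (no effect) to 100 (complete control), versus untreated plants after roughly 10 d in a greenhouse. Compounds, formulated in a surfactant-containing non-phytotoxic solvent, were sprayed on loam–sand soil after sowing (pre) or on one- to two-leaf plants 2–10 cm tall (post).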

[5] = system: ragweed (common ragweed, Ambrosia elatior); test: as above
In short: as §2

corn (Zea mays) = test: as above; settings: Postemergence; for Corn plant response rating: 0 to 100 scale, 0 is no effect, 100 is complete control
In short: as §2

[6] = system: pigweed (Amaranthus retroflexus); test: as above
In short: as §2

kochia (Kochia scoparia) [7] = test: as above
In short: as §2

[8] = system: barnyardgrass (Echinochloa crus-galli); test: as above
In short: as §2

[9] = system: foxtail, giant (giant foxtail, Setaria faberii); test: as above
In short: as §2

[10] = Postemergence, 31 g ai/ha, 0 to 100 scale (0 no effect, 100 complete control)
[11] = Postemergence, 125 g ai/ha, scale 0 to 100, 0 is no effect, 100 is complete control
[12] = Postemergence, 250 g ai/ha, scale 0 to 100, 0 no effect, 100 complete control, 13 to 15 d
[13] = postemergence, 62 g ai/ha, scale 0 to 100, 0 no effect, 100 complete control
[14] = 125 g ai/ha, 0 to 100 scale where 0 is no effect and 100 is complete control
[15] = Postemergence, 125 g ai/ha, 0 to 100 scale where 0 is no effect and 100 is complete control
[16] = Postemergence, 500 g ai/ha, 0 to 100 scale, 0 is no effect, 100 is complete control
[17] = Preemergence, 125 g ai/ha, 0 to 100 scale where 0 is no effect and 100 is complete control
[18] = Preemergence, 500 g ai/ha, 0 to 100 scale where 0 is no effect and 100 is complete control
[19] = Preemergence, 500 g ai/ha, 0 to 100 scale, 0 no effect, 100 complete control
[20] = 500 g ai/ha, visual rating after approx. 10 d, 0 to 100 scale (0 no effect, 100 complete control)
[21] = Postemergence, 500 g ai/ha, visual rating after approx. 10 d, 0 to 100 scale (0 no effect, 100 complete control)
[22] = Postemergence, 31 g ai/ha, scale 0 to 100 (0 no effect, 100 complete control)
[23] = Postemergence, 125 g ai/ha, visual rating after approx. 10 d, 0 to 100 scale (0 no effect, 100 complete control)

SMILES	Plant response rating, Oat, Wild [1, 11]	Plant response rating, Oat, Wild [1, 12]	Oat, Wild plant response rating [1, 13]	Chickweed plant response rating [2, 10]	Plant response rating, Chickweed [2, 11]	Plant response rating, Chickweed [2, 12]	Chickweed plant response rating [2, 13]	Plant response rating, Kochia (kochia (Kochia scoparia) [3]; [11])	Plant response rating, Kochia (kochia (Kochia scoparia) [3]; [12])	Kochia plant response rating (kochia (Kochia scoparia) [3]; [13])	Plant response rating, Wheat [4, 14]	Plant response rating, Ragweed [5, 15]	Ragweed plant response rating [5, 17]	Plant response rating, Ragweed [5, 18]	Plant response rating, Corn (corn (Zea mays); [14])	Pigweed plant response rating [6, 17]	Kochia plant response rating (kochia (Kochia scoparia) [7]; [17])	Barnyardgrass plant response rating [8, 16]	Barnyardgrass plant response rating [8, 17]	Foxtail, Giant plant response rating [9, 17]	also measured
Cc1nn(C)c(=O)c(-c2ccc(Br)c3ccccc23)c1O [Compound 75]	40	35	35	95	95	95	90	95	95	85	0	60	70	90	0	100	80	60	40	50	Oat, Wild plant response rating [1, 10]: 40; Kochia plant response rating (kochia (Kochia scoparia) [3]; [10]): 90; Wheat plant response rating ([4]; 500 g ai/ha): 20; Ragweed plant response rating [5, 16]: 90; Corn plant response rating (corn (Zea mays); 500 g ai/ha): 20; Plant response rating, Pigweed [6, 15]: 30; Pigweed plant response rating [6, 16]: 50; Plant response rating, Pigweed [6, 18]: 100; Plant response rating, Kochia (kochia (Kochia scoparia) [7]; [15]): 80; Kochia plant response rating (kochia (Kochia scoparia) [7]; [16]): 90; Plant response rating, Kochia (kochia (Kochia scoparia) [7]; [18]): 90; Plant response rating, Barnyardgrass [8, 15]: 0; Plant response rating, Barnyardgrass [8, 19]: 80; Plant response rating, Foxtail, Giant [9, 15]: 50; Foxtail, Giant plant response rating [9, 16]: 50; Plant response rating, Foxtail, Giant [9, 18]: 90
CC(=O)Oc1c(C)nn(C)c(=O)c1-c1c(C)cc(C)c2ccccc12 [Compound 99]	90	95	70	90	90	90	90	90	95	85	20	100	80	80	20	100	20	90	60	50	Plant response rating, Wheat [4, 20]: 30; Plant response rating, Ragweed [5, 21]: 100; Plant response rating, Corn (corn (Zea mays); [20]): 40; Plant response rating, Pigweed [6, 15]: 70; Plant response rating, Pigweed [6, 21]: 90; Plant response rating, Pigweed [6, 18]: 100; Plant response rating, Kochia (kochia (Kochia scoparia) [7]; [15]): 30; Plant response rating, Kochia (kochia (Kochia scoparia) [7]; [21]): 70; Plant response rating, Kochia (kochia (Kochia scoparia) [7]; [18]): 70; Plant response rating, Barnyardgrass [8, 15]: 20; Plant response rating, Barnyardgrass [8, 18]: 90; Plant response rating, Foxtail, Giant [9, 15]: 40; Plant response rating, Foxtail, Giant [9, 21]: 90; Plant response rating, Foxtail, Giant [9, 18]: 80
Cc1ccc2ccccc2c1-c1c(O)c(C(F)(F)F)nn(C)c1=O [Compound 102]	10	25			95	98	95	20	50		20	100	90	90	20	80	10	90	40	70	Plant response rating, Oat, Wild [1, 22]: 5; Plant response rating, Chickweed [2, 22]: 95; Plant response rating, Kochia (kochia (Kochia scoparia) [3]; [22]): 0; Plant response rating, Wheat [4, 20]: 20; Plant response rating, Ragweed [5, 21]: 100; Plant response rating, Corn (corn (Zea mays); [20]): 20; Plant response rating, Pigweed [6, 15]: 90; Plant response rating, Pigweed [6, 21]: 90; Plant response rating, Pigweed [6, 18]: 100; Plant response rating, Kochia (kochia (Kochia scoparia) [7]; [15]): 20; Plant response rating, Kochia (kochia (Kochia scoparia) [7]; [21]): 40; Plant response rating, Kochia (kochia (Kochia scoparia) [7]; [18]): 30; Plant response rating, Barnyardgrass [8, 15]: 40; Plant response rating, Barnyardgrass [8, 18]: 60; Plant response rating, Foxtail, Giant [9, 15]: 70; Plant response rating, Foxtail, Giant [9, 21]: 90; Plant response rating, Foxtail, Giant [9, 18]: 90
COC(=O)Oc1c(C)nn(C)c(=O)c1-c1c(C)sc2ccc(C)cc12 [Compound 80]	90	95	90	90	95	98	95	90	90	90	0	80	80	90	0	90	90	80	70	80	Oat, Wild plant response rating [1, 10]: 90; Kochia plant response rating (kochia (Kochia scoparia) [3]; [10]): 90; Wheat plant response rating ([4]; 500 g ai/ha): 0; Ragweed plant response rating [5, 16]: 90; Corn plant response rating (corn (Zea mays); 500 g ai/ha): 0; Plant response rating, Pigweed [6, 15]: 90; Pigweed plant response rating [6, 16]: 90; Plant response rating, Pigweed [6, 18]: 100; Plant response rating, Kochia (kochia (Kochia scoparia) [7]; [15]): 90; Kochia plant response rating (kochia (Kochia scoparia) [7]; [16]): 90; Plant response rating, Kochia (kochia (Kochia scoparia) [7]; [18]): 90; Plant response rating, Barnyardgrass [8, 15]: 70; Plant response rating, Barnyardgrass [8, 19]: 90; Plant response rating, Foxtail, Giant [9, 15]: 80; Foxtail, Giant plant response rating [9, 16]: 80; Plant response rating, Foxtail, Giant [9, 18]: 90
Cc1ccc2sc(C)c(-c3c(OC(=O)C(C)(C)C)c(C)nn(C)c3=O)c2c1 [Compound 26]	95	90	80	95	100	100	95	90	100	70	0		20			80	30	30	0	30	Oat, Wild plant response rating [1, 10]: 60; Kochia plant response rating (kochia (Kochia scoparia) [3]; [10]): 80; Wheat plant response rating ([4]; 500 g ai/ha): 0; Plant response rating, Ragweed [5, 23]: 60; Ragweed plant response rating [5, 16]: 90; Plant response rating, Ragweed [5, 19]: 40; Plant response rating, Corn (corn (Zea mays); 125 g ai/ha, visual rating after approx. 10 d, 0 to 100 scale (0 no effect, 100 complete control)): 0; Corn plant response rating (corn (Zea mays); 500 g ai/ha): 0; Plant response rating, Pigweed [6, 23]: 80; Pigweed plant response rating [6, 16]: 90; Plant response rating, Pigweed [6, 19]: 100; Plant response rating, Kochia (kochia (Kochia scoparia) [7]; [23]): 80; Kochia plant response rating (kochia (Kochia scoparia) [7]; [16]): 90; Plant response rating, Kochia (kochia (Kochia scoparia) [7]; [19]): 30; Plant response rating, Barnyardgrass [8, 23]: 10; Plant response rating, Barnyardgrass [8, 19]: 10; Plant response rating, Foxtail, Giant [9, 23]: 10; Foxtail, Giant plant response rating [9, 16]: 60; Plant response rating, Foxtail, Giant [9, 19]: 50
